Measured values published in article PMC10810011 (Expert opinion on drug delivery, 2023).
Where a name gives a salt, the structure may show the parent alone. One block for each compound: values may come before it.

Experiments:
[1] = target: T1, Muscarinic M2 (Homo sapiens, UniProt P08172); experiment: InVEST radioligand filter binding, Muscarinic M2; conditions: read-out: IC50 (M) of reference compound, tested in parallel
T1 sequence (P08172 1-466): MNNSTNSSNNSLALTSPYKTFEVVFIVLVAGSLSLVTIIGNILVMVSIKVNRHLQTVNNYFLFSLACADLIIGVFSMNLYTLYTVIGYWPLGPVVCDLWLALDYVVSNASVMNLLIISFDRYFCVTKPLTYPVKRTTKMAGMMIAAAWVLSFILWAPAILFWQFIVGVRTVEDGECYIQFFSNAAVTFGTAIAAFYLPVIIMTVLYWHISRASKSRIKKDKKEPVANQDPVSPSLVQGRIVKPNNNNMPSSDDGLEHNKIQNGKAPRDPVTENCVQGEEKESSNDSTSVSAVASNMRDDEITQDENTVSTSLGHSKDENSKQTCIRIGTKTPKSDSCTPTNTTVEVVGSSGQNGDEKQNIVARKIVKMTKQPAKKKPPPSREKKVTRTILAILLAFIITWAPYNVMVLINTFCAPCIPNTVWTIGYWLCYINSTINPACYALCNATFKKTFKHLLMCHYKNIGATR

[2] = target: T2, AHR-activation (Homo sapiens, UniProt P35869)
T2 sequence (P35869 11-848): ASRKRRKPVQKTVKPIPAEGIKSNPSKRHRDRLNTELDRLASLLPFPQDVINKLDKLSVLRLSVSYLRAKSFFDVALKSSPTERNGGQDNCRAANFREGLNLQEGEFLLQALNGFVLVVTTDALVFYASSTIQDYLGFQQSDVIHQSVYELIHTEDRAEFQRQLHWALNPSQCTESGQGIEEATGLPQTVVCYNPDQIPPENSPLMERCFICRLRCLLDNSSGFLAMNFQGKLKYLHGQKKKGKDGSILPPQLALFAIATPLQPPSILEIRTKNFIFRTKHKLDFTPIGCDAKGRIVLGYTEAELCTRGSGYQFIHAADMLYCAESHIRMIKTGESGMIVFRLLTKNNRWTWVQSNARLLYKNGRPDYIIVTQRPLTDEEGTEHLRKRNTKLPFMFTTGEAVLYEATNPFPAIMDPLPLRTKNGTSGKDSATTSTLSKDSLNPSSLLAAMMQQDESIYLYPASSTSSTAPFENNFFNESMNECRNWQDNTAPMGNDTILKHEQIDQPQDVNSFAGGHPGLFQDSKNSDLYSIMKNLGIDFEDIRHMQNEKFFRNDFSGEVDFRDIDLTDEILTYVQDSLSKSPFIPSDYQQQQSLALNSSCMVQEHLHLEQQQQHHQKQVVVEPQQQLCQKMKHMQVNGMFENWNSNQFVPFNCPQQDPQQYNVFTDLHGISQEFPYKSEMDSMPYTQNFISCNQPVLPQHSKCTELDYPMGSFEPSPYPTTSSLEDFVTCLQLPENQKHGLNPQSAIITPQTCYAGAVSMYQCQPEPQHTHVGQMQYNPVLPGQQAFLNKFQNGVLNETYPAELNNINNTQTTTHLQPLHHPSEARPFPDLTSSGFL

[3] = target: 5-HT1B (Homo sapiens, UniProt P28222); experiment: InVEST radioligand filter binding, 5-HT1B
[4] = target: T3, 5-HT3 (Homo sapiens, UniProt P46098); experiment: InVEST radioligand filter binding, ion channel 5-HT3; conditions: read-out: IC50 (M) of reference compound, tested in parallel
T3 sequence (P46098 24-478): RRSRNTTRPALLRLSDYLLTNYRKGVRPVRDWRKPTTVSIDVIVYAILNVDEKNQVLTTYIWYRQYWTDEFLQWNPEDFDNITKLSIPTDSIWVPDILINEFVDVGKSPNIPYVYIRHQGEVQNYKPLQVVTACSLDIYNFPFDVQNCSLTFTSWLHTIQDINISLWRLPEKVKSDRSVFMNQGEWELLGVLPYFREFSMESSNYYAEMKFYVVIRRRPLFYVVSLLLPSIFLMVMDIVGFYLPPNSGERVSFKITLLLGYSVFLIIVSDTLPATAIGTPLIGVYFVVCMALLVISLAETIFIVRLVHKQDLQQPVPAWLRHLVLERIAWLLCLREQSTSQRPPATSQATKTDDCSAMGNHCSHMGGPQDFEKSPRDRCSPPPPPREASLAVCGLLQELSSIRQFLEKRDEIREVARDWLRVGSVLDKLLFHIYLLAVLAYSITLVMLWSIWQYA

[5] = target: PDE4A (Homo sapiens, UniProt P27815); experiment: InVEST enzymatic activity, PDE4A; type: biochemical; conditions: read-out: IC50 (M) of reference compound, tested in parallel
[6] = target: PDE3A (Homo sapiens, UniProt Q14432); experiment: InVEST enzymatic activity, PDE3A; type: biochemical; conditions: read-out: IC50 (M) of reference compound, tested in parallel
[7] = target: T4, alpha2A adrenergic (Homo sapiens, UniProt P08913); experiment: InVEST radioligand filter binding, alpha2A adrenergic; conditions: read-out: IC50 (M) of reference compound, tested in parallel
T4 sequence (P08913 1-465): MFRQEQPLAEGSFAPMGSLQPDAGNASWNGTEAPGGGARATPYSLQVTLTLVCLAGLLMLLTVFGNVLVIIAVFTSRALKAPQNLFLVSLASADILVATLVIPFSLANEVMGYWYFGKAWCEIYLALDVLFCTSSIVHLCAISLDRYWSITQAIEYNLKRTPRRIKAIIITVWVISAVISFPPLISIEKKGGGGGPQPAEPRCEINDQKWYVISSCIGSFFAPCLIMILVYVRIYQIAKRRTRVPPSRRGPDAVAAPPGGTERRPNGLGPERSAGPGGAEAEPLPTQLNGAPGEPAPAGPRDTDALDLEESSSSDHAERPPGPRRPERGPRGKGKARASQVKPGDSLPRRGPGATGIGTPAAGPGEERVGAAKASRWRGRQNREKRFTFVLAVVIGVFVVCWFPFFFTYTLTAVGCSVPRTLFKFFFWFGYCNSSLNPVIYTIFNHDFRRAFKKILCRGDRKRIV

[8] = target: Thrombin alpha (Homo sapiens, UniProt P00734); experiment: InVEST enzymatic activity, Thrombin alpha; type: biochemical; conditions: read-out: IC50 (M) of reference compound, tested in parallel
[9] = target: T5, CCK (Homo sapiens, UniProt P32238); experiment: InVEST radioligand filter binding, CCK
T5 sequence (P32238 1-428): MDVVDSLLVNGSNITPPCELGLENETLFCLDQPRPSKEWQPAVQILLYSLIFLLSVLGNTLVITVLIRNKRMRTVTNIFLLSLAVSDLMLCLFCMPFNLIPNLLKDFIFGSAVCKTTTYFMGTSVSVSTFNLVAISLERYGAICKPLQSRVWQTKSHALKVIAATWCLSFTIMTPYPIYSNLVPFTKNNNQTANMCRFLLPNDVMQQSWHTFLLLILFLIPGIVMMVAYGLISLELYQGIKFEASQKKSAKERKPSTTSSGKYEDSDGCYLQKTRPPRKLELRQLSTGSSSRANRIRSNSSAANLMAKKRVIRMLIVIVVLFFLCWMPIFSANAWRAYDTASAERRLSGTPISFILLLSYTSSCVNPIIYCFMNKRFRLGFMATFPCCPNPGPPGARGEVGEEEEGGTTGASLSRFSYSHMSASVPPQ

[10] = target: T6, AHR-inhibition (Homo sapiens, UniProt P35869); experiment: InVEST fluorescence polarization binding/cell-based activity, AHR-inhibition; conditions: read-out: IC50 (M) of reference compound, + 10 nM FICZ, tested in parallel
T6 sequence (P35869 11-848): T2 sequence (P35869 11-848)

Sequence of PDE4A (P27815 whole entry): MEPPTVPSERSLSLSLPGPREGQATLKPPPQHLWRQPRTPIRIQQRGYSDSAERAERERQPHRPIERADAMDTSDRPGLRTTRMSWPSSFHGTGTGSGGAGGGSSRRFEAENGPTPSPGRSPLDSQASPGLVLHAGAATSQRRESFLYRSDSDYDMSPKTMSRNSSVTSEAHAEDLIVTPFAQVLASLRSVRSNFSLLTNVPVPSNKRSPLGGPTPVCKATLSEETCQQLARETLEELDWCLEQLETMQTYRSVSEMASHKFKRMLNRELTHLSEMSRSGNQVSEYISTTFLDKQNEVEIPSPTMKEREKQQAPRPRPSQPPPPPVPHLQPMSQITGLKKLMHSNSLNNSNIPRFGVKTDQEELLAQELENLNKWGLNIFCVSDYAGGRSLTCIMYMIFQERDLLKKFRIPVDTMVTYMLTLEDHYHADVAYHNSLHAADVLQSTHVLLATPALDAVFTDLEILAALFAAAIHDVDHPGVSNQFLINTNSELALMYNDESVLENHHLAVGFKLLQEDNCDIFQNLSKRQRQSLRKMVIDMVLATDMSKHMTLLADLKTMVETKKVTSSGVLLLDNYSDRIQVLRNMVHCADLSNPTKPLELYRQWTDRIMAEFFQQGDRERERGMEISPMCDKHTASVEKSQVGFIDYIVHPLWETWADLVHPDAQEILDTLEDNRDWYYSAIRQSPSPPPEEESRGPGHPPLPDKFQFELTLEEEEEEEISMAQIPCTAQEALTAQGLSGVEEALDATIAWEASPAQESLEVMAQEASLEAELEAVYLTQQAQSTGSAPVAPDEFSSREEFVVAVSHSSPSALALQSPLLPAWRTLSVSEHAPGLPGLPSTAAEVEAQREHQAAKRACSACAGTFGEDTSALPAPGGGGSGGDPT
Sequence of 5-HT1B (P28222 whole entry): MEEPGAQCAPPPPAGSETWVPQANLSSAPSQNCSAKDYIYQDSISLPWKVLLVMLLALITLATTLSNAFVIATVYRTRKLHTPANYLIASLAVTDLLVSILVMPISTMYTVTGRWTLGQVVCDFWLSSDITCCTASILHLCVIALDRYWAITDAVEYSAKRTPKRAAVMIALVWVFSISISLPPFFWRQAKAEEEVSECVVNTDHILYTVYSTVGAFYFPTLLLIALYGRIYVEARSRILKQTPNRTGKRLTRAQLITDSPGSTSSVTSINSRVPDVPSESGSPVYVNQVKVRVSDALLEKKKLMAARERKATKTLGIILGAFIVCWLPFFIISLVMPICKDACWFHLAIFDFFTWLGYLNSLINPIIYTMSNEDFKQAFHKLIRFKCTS
Sequence of PDE3A (Q14432 whole entry): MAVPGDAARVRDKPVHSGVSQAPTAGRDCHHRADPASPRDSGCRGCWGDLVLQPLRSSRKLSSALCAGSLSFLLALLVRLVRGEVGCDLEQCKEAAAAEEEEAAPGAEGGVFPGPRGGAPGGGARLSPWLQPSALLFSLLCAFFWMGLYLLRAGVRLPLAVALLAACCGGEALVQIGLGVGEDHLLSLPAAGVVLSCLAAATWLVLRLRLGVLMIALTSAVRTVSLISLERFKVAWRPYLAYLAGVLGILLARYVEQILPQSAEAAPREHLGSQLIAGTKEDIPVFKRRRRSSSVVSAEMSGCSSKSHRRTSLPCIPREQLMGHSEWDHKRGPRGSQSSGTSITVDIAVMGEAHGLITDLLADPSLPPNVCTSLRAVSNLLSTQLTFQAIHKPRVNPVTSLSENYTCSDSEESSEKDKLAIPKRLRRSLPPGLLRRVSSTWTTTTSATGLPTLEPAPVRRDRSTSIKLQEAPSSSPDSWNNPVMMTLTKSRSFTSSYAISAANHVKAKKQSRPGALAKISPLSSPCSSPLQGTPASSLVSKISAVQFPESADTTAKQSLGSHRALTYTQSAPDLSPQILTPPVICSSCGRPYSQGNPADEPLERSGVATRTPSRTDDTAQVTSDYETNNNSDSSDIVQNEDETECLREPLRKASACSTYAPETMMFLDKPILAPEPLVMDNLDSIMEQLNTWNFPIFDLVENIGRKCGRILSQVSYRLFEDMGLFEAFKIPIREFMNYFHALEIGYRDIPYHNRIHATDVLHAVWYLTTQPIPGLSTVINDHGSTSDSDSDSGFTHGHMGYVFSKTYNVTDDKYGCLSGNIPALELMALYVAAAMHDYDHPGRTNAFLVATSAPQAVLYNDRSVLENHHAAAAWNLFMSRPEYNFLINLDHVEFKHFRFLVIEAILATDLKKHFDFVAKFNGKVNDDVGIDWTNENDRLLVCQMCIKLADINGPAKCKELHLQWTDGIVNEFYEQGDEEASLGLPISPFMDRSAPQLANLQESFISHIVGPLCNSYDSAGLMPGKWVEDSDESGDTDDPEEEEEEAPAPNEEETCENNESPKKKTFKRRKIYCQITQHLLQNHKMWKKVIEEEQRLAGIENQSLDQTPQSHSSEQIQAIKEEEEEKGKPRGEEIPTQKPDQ

IC50 [3]: 4.85 nM
Compound: COc1ccc(NC(=O)c2ccc(-c3ccncc3)c(C)c2)cc1N1CCN(C)CC1 [GR125743, reference compound]

IC50 [5]: 3e-05 M
IC50 [6]: 2.21e-05 M
Compound: CC(C)Cn1c(=O)n(C)c(=O)c2[nH]cnc21 [IBMX, reference compound]

IC50 [7]: 1.15e-08 M
Compound: COC1(C2=NCCN2)COc2ccccc2O1 (stereo not shown) [RX 821002, reference compound]

IC50 [9]: 3.78 nM
Compound: CCCCCN(CCCCC)C(=O)C(CCC(=O)O)NC(=O)c1ccc(Cl)c(Cl)c1 (stereo not shown) [lorglumide, reference compound]

IC50 [10]: 2.9e-07 M
Compound: GNF-351 [reference compound]

The next lines start with the compound.

Compound: CCCN(CCC)CC1CCCCN1CCNC(=O)N1c2ccccc2C(=O)Nc2cccnc21 (stereo not shown) [AF-DX 384, reference compound]
IC50 [1]: 1.79e-08 M

Compound: O=Cc1c2[nH]c3ccccc3c2cc2[nH]c3ccccc3c12 [FICZ]
IC50 [2]: 10.5 nM

Compound: Cc1[nH]cnc1CCC(=O)c1cn(C)c2ccccc12 [GR 65630, reference compound]
IC50 [4]: 1.09e-09 M

Compound: CCOC(=O)c1ccc(OC(=O)CCCCCN=C(N)N)cc1 [gabexate mesylate, reference compound]
IC50 [8]: 2.26e-06 M
